Active and inactive are the calls of the source. The calls are words filed in the database; no cut-off is given here.
Key:
MDA-MB-453 = experiment: Inhibition of cell proliferation in human MDA-MB-453 cells upto 10 umol/L incubated for 72 hrs by DAPI staining based analysis; format: functional; details: dose <= 10.0 µmol/L
OE19 = experiment: Inhibition of cell proliferation in human OE19 cells upto 10 umol/L incubated for 72 hrs by DAPI staining based analysis; format: functional; details: dose <= 10.0 µmol/L
SAOS-2 = experiment: Inhibition of cell proliferation in human SAOS-2 cells upto 10 umol/L incubated for 72 hrs by DAPI staining based analysis; format: functional; details: dose <= 10.0 µmol/L
SCC-25 = experiment: Inhibition of cell proliferation in human SCC-25 cells upto 10 umol/L incubated for 72 hrs by DAPI staining based analysis; format: functional; details: dose <= 10.0 µmol/L
[1] = Cmin in adult patient with recurrent LMNA-NTRK1 rearranged colorectal cancer at 100 mg administered twice a day as powder-in-capsule or liquid formulation for 22 day and measured 10 hrs post dose by LC-MS/MS analysis; format: ADME; details: human, in vivo, po, read-out: Cmin
[2] = AUC in pediatric patient with recurrent ETV6-NTRK3-rearranged infantile fibrosarcoma at 20 mg administered twice a day as liquid formulation for 1 day by LC-MS/MS analysis; format: ADME; details: human, in vivo
[3] = target: Serine/threonine-protein kinase 10 (Homo sapiens) (UniProt O94804); experiment: Inhibition of LOK (unknown origin) at 1 uM in presence of ATP relative to control; values are per cent of control
[4] = target: Tyrosine-protein kinase Blk (Homo sapiens) (UniProt P51451); experiment: Inhibition of BLK (unknown origin) at 1 uM in presence of ATP relative to control; values are per cent of control
[5] = target: Insulin receptor-related protein (Homo sapiens) (UniProt P14616); experiment: Inhibition of IRR (unknown origin) at 1 uM in presence of ATP relative to control; values are per cent of control
[6] = target: Ribosomal protein S6 kinase alpha-6 (Homo sapiens) (UniProt Q9UK32); experiment: Inhibition of Rsk4 (unknown origin) at 1 uM in presence of ATP relative to control; values are per cent of control
[7] = target: Serine/threonine-protein kinase Nek2 (Homo sapiens) (UniProt P51955); experiment: Inhibition of NEK2 (unknown origin) at 1 uM in presence of ATP relative to control; values are per cent of control
[8] = target: Dual specificity mitogen-activated protein kinase kinase 1 (Homo sapiens) (UniProt Q02750); experiment: Inhibition of MEK1 (unknown origin) at 1 uM in presence of ATP relative to control; values are per cent of control
[9] = target: Misshapen-like kinase 1 (Homo sapiens) (UniProt Q8N4C8); experiment: Inhibition of MINK (unknown origin) at 1 uM in presence of ATP relative to control; values are per cent of control
[10] = target: Epidermal growth factor receptor (Homo sapiens) (UniProt P00533); experiment: Inhibition of EGFR (unknown origin) at 1 uM in presence of ATP relative to control; values are per cent of control
[11] = target: Receptor-type tyrosine-protein kinase FLT3 (Homo sapiens) (UniProt P36888); experiment: Inhibition of FLt3 (unknown origin) at 1 uM in presence of ATP relative to control; values are per cent of control
[12] = target: Tyrosine-protein kinase JAK3 (Homo sapiens) (UniProt P52333); experiment: Inhibition of JAK3 (unknown origin) at 1 uM in presence of ATP relative to control; values are per cent of control
[13] = target: Death-associated protein kinase 3 (Homo sapiens) (UniProt O43293); experiment: Inhibition of DAPK3 (unknown origin) at 1 uM in presence of ATP relative to control; values are per cent of control
[14] = target: Serine/threonine-protein kinase MARK1 (Homo sapiens) (UniProt Q9P0L2); experiment: Inhibition of MARK1 (unknown origin) at 1 uM in presence of ATP relative to control; values are per cent of control
[15] = target: Serine/threonine-protein kinase pim-2 (Homo sapiens) (UniProt Q9P1W9); experiment: Inhibition of Pim-2 (unknown origin) at 1 uM in presence of ATP relative to control; values are per cent of control
[16] = target: SRSF protein kinase 2 (Homo sapiens) (UniProt P78362); experiment: Inhibition of SRPK2 (unknown origin) at 1 uM in presence of ATP relative to control; values are per cent of control
[17] = target: Ephrin type-A receptor 1 (Homo sapiens) (UniProt P21709); experiment: Inhibition of EphA1 (unknown origin) at 1 uM in presence of ATP relative to control; values are per cent of control
[18] = target: Mitogen-activated protein kinase kinase kinase 5 (Homo sapiens) (UniProt Q99683); experiment: Inhibition of MAP3K5 (unknown origin) at 1 uM in presence of ATP relative to control; values are per cent of control
[19] = target: Protein kinase C iota type (Homo sapiens) (UniProt P41743); experiment: Inhibition of PKCiota (unknown origin) at 1 uM in presence of ATP relative to control; values are per cent of control
[20] = target: Inhibitor of nuclear factor kappa-B kinase subunit beta (Homo sapiens) (UniProt O14920); experiment: Inhibition of IKKbeta (unknown origin) at 1 uM in presence of ATP relative to control; values are per cent of control
[21] = target: MAP kinase-activated protein kinase 2 (Homo sapiens) (UniProt P49137); experiment: Inhibition of MAPKAP-K2 (unknown origin) at 1 uM in presence of ATP relative to control; values are per cent of control
[22] = target: Mitogen-activated protein kinase 8 (Homo sapiens) (UniProt P45983); experiment: Inhibition of JNK1alpha1 (unknown origin) at 1 uM in presence of ATP relative to control; values are per cent of control
[23] = target: FKBP12A/mTOR (Homo sapiens) (UniProt P62942+P42345); experiment: Inhibition of mTOR/FKBP12 (unknown origin) at 1 uM in presence of ATP relative to control; values are per cent of control
[24] = target: Insulin receptor (Homo sapiens) (UniProt P06213); experiment: Inhibition of Activated IR (unknown origin) at 1 uM in presence of ATP relative to control; values are per cent of control

Sequence of Ephrin type-A receptor 1 (Homo sapiens) (P21709 whole entry): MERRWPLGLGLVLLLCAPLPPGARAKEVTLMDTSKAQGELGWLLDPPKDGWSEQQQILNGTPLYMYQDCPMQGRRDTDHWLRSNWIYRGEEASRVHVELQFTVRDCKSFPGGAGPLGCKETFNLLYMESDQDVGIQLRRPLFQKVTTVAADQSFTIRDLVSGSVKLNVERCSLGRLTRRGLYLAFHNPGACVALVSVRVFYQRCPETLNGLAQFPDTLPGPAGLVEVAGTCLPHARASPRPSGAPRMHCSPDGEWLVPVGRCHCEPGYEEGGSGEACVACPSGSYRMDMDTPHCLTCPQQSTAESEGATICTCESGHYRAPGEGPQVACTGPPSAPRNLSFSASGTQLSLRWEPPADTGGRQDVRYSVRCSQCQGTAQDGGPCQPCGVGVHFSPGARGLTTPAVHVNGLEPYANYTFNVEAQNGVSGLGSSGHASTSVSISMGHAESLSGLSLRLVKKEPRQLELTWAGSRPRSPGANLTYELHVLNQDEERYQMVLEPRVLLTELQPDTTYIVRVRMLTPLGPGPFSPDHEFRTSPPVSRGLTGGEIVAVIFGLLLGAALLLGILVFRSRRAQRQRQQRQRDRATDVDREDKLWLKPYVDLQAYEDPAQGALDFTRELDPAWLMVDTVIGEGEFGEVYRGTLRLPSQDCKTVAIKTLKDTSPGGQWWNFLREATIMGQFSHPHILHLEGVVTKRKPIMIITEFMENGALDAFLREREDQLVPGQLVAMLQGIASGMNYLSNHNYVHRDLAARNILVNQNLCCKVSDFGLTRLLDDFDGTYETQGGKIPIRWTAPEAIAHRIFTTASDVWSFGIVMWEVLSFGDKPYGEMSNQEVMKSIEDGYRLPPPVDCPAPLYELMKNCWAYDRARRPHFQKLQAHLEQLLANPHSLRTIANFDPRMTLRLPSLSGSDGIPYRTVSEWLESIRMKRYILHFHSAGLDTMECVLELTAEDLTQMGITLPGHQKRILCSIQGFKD
Sequence of Death-associated protein kinase 3 (Homo sapiens) (O43293 whole entry, looked up): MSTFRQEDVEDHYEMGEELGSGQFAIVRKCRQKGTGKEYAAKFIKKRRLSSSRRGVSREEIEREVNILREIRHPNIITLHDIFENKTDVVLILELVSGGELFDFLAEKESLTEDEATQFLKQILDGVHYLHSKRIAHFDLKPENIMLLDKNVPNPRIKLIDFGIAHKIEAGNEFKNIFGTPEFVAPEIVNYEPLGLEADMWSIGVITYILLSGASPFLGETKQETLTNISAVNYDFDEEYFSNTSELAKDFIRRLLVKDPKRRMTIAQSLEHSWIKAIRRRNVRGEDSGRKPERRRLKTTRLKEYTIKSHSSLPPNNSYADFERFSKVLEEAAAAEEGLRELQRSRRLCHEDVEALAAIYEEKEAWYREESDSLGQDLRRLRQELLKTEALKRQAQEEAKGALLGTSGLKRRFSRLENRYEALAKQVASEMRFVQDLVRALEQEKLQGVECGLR
Sequence of Serine/threonine-protein kinase Nek2 (Homo sapiens) (P51955 whole entry): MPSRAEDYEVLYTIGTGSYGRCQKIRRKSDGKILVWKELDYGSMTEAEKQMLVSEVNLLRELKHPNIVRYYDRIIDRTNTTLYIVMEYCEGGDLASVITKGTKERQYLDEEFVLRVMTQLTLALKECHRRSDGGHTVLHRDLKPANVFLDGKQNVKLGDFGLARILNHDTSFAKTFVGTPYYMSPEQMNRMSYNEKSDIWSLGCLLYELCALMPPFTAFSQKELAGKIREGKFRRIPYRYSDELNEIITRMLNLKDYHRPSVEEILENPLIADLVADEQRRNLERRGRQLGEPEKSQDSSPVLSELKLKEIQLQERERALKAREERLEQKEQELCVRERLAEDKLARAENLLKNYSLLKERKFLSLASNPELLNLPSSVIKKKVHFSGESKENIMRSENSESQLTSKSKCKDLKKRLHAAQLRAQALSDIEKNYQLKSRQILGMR
Sequence of Protein kinase C iota type (Homo sapiens) (P41743 whole entry): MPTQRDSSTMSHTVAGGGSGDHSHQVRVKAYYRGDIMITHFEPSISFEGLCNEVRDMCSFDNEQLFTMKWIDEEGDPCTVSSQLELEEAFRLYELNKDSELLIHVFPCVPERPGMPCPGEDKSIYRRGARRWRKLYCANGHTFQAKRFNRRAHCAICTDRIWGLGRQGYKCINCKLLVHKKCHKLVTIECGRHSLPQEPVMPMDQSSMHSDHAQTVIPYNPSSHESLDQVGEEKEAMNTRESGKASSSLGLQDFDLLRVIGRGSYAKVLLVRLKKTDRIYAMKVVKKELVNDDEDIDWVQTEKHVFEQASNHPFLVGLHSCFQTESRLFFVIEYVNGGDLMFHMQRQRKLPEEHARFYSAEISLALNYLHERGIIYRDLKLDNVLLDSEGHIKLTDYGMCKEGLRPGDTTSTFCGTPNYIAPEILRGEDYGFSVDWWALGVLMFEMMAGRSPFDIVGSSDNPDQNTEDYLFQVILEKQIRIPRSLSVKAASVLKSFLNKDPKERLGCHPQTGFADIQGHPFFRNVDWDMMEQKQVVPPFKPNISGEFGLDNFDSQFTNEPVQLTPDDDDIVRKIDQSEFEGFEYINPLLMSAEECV
Sequence of Receptor-type tyrosine-protein kinase FLT3 (Homo sapiens) (P36888 whole entry): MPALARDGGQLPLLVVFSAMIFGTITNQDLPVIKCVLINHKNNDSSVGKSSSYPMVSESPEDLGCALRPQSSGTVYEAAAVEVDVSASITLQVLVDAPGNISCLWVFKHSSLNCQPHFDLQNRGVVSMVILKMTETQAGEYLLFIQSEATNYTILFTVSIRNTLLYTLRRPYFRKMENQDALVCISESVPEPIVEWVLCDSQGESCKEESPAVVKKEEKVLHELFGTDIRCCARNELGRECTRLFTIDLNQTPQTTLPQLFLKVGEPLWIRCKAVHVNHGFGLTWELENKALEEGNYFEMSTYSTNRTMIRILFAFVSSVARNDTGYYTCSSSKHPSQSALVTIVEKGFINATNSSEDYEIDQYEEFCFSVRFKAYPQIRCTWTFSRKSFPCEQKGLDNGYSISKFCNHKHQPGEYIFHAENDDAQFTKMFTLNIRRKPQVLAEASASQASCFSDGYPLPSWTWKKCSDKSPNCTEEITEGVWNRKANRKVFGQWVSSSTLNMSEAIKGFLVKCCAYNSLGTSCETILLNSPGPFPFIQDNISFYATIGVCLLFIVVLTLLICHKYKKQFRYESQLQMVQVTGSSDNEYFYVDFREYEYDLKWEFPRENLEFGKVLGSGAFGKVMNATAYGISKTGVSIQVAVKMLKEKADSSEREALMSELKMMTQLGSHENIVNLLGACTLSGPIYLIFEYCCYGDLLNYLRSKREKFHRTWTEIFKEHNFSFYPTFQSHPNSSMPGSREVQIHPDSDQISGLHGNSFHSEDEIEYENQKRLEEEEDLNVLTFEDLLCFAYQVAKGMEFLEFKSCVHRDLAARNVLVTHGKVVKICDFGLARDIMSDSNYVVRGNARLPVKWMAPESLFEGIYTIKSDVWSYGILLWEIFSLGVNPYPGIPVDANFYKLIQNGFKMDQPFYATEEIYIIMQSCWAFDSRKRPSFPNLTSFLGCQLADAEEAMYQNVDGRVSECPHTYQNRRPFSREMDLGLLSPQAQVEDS
Sequence of Mitogen-activated protein kinase kinase kinase 5 (Homo sapiens) (Q99683 whole entry): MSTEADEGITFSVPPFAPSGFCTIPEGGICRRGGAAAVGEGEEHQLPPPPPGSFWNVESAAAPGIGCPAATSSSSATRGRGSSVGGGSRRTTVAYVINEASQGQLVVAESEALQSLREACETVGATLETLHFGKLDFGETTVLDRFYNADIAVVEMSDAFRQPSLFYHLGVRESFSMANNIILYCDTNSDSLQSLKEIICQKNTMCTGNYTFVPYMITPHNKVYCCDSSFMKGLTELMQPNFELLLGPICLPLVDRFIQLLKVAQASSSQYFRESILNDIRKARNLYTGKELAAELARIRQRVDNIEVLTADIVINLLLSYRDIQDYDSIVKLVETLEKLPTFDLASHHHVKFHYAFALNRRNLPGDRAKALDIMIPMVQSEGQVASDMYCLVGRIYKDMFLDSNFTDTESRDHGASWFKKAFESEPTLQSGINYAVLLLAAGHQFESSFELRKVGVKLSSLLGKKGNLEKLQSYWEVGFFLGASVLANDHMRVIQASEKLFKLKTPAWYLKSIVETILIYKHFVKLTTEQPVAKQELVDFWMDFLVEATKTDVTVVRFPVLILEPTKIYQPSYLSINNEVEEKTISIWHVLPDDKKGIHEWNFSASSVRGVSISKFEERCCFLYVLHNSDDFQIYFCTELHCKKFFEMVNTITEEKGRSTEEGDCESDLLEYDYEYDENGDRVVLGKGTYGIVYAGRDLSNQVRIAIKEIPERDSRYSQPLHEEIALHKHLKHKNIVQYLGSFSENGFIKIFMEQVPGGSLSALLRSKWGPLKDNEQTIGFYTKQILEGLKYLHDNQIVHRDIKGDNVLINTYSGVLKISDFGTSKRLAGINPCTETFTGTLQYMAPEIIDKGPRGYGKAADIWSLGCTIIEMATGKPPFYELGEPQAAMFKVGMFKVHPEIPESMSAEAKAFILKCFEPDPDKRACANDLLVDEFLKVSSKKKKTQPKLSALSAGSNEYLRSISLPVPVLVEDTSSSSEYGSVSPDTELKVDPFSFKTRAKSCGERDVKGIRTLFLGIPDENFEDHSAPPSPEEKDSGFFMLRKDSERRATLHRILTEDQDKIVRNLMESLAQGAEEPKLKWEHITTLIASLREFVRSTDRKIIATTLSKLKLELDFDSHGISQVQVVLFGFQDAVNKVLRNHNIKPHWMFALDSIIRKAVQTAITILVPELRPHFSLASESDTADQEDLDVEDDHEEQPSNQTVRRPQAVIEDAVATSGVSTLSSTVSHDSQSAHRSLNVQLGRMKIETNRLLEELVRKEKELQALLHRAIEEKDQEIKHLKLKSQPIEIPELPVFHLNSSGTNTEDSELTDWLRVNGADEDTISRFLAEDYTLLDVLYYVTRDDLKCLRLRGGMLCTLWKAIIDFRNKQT
Sequence of FKBP12A/mTOR (Homo sapiens) (P62942 2-108 limits assumed, other chains not shown): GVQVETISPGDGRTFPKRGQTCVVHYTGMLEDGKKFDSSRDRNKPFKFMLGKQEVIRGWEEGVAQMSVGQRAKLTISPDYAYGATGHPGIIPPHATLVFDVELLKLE

- concentration at 538 h [1]: 14.7 ng/mL
- AUC at 24 h [2]: 615 ng·h/mL
- residual activity [3]: 99.5%
- residual activity [4]: 108%
- residual activity [5]: 111%
- residual activity [6]: 127%
- residual activity [7]: 117%
- residual activity [8]: 122%
- residual activity [9]: 99.5%
- residual activity [10]: 103%
- residual activity [11]: 85.5%
- residual activity [12]: 103%
- residual activity [14]: 94%
- residual activity [15]: 120%
- residual activity [16]: 93.5%
- residual activity [17]: 74%
- residual activity [18]: 106%
- residual activity [19]: 100%
- residual activity [20]: 119%
- residual activity [21]: 102%
- residual activity [22]: 106%
- residual activity [23]: 102%
- residual activity [24]: 97%
SMILES: C[C@@H]1CCc2ncc(F)cc2[C@H]2CCCN2c2ccn3ncc(c3n2)C(=O)N1 [SELITRECTINIB]
- inhibition (MDA-MB-453): inactive
- inhibition (OE19): inactive
- inhibition (SAOS-2): inactive
- inhibition (SCC-25): inactive
- residual activity [13]: 120%
